# Data reported in BindingDB's records for doi:10.1016/j.bmc.2006.08.003 (Hokuriku University, 2006).
# pIC50, pKi: −log10 of the molar value.
# Target: T1, Lysosomal acid glucosylceramidase (Homo sapiens, UniProt P04062)
# T1 sequence (P04062 whole entry): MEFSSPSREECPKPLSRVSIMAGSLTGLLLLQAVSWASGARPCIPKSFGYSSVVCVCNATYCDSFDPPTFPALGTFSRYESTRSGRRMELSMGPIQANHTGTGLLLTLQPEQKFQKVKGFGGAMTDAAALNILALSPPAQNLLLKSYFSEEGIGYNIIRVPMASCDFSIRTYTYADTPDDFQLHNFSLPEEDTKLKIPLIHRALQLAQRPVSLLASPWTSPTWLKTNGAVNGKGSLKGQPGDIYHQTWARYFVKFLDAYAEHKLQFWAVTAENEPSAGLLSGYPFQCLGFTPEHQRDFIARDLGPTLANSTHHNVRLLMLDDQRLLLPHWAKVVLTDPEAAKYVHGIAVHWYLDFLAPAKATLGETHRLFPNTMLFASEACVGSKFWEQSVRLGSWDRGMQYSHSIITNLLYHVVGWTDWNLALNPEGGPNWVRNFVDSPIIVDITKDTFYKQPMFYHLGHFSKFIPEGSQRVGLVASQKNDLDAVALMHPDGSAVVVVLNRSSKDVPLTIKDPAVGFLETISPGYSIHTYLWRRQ
# Experiment: In Vitro Enzyme Inhibition
# Conditions: pH 5.5; 37 °C
Structure (SMILES),pIC50,pKi
"CCCCCC[C@H]1N[C@H](CO)[C@@H](O)[C@H](O)[C@H]1O [(2R,3S,4R,5R,6R)-2-hexyl-6-(hydroxymethyl)piperidine-3,4,5-triol]",5.38,5.64
"CN1C[C@H](O)[C@@H](O)[C@H](O)[C@H]1CO [(2R,3R,4R,5S)-2-(hydroxymethyl)-1-methylpiperidine-3,4,5-triol]",3.82,
"CCCC[C@H]1N[C@H](CO)[C@@H](O)[C@H](O)[C@H]1O [(2R,3S,4R,5R,6R)-2-butyl-6-(hydroxymethyl)piperidine-3,4,5-triol]",,3.96
"CCCN1C[C@H](O)[C@@H](O)[C@H](O)[C@H]1CO [(2R,3R,4R,5S)-2-(hydroxymethyl)-1-propylpiperidine-3,4,5-triol]",3.15,
"CCCCCCCCN1C[C@H](O)[C@@H](O)[C@H](O)[C@H]1CO [(2R,3R,4R,5S)-2-(hydroxymethyl)-1-octylpiperidine-3,4,5-triol]",6.09,6.38
"CCCCCCCC[C@H]1N[C@H](CO)[C@@H](O)[C@H](O)[C@H]1O [(2R,3R,4R,5S,6R)-2-(hydroxymethyl)-6-octylpiperidine-3,4,5-triol]",6.30,6.55
"CCCCCCN1C[C@H](O)[C@@H](O)[C@H](O)[C@H]1CO [(2R,3R,4R,5S)-1-hexyl-2-(hydroxymethyl)piperidine-3,4,5-triol]",4.89,5.26
"C[C@H]1N[C@H](CO)[C@@H](O)[C@H](O)[C@H]1O [(2R,3R,4R,5S,6R)-2-(hydroxymethyl)-6-methylpiperidine-3,4,5-triol]",3.05,
"CCC[C@H]1N[C@H](CO)[C@@H](O)[C@H](O)[C@H]1O [(2R,3R,4R,5S,6R)-2-(hydroxymethyl)-6-propylpiperidine-3,4,5-triol]",3.40,
CCCCCCCCC[C@H]1N[C@H](CO)[C@@H](O)[C@H](O)[C@H]1O [CN-DNJ],6.57,6.70
